Among the test systems are RXF 393; RPMI-8226; SW-620; SN12C; LOX IMVI; HCC 2998; HCT-15; HCT-116; UACC-62; UO-31; CCRF-CEM; SK-MEL-5; CAKI-1; SF-268; COLO 205; A549; NCI/ADR-RES; HL-60; NCI-H522; MOLT-4.
What all share (experiment): DTP human tumour cell line panel, 48 h

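Step 1: Grow cells in 96-well plates. Step 2: Expose to compound for 48 hours at 5 concentrations. Step 3: Interpolate endpoints linearly; if unreached, use highest concentration. GI50 marks 50% less growth.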 The source made the active and inactive calls. No stated cut-off is given here; in the data, active = GI50 up to about 1.1 µM and inactive = higher.

Broadly, the GI50 is the concentration at which growth is held to half of that of the control.

Turning to `Nc1n[c-](N)[n+](=O)c(N)c1NCO`, the GI50 with RXF 393, in the assay on RPMI-8226, in the assay on SW-620, in the assay with SN12C, in the assay with LOX IMVI and with HCC 2998 was > 100 µM (inactive) throughout. The GI50 with HCT-15 is over 100 µM; in the assay with HCT-116 it was > 100 µM (inactive); in the assay with UACC-62 it was > 100 µM (inactive); with UO-31, > 100 µM (inactive); in the assay on CCRF-CEM, > 100 µM (inactive); with SK-MEL-5, > 100 µM (inactive). In addition, the GI50 in the assay on CAKI-1, in the assay on SF-268, in the assay on COLO 205, with A549, in the assay with NCI/ADR-RES and in the assay with HL-60 was > 100 µM (inactive) in each case. Besides, the GI50 in the assay on NCI-H522 and in the assay with MOLT-4 was > 100 µM (inactive) throughout.
As to `COc1nc(SC)nc2c1cnn2C1OC(C(O)CO)C(OC)C1O` (stereo not drawn), the GI50 in the assay on RXF 393 was > 83.2 µM (inactive); in the assay with RPMI-8226, 63.8 µM (inactive); with SW-620, > 100 µM (inactive); in the assay on SN12C it was > 100 µM (inactive); with LOX IMVI, > 100 µM (inactive); in the assay on HCC 2998 it was > 100 µM (inactive). Besides, the GI50 is over 83 µM in the assay with HCT-15; 78.2 µM (inactive) with HCT-116; > 65.6 µM (inactive) with UACC-62; 34.9 µM (inactive) in the assay with UO-31; 58.7 µM (inactive) in the assay on CCRF-CEM; > 100 µM (inactive) in the assay with SK-MEL-5. Also, the GI50 is > 92.7 µM (inactive) in the assay on SF-268; > 74.5 µM (inactive) in the assay with COLO 205; 52.1 µM (inactive) with A549; > 100 µM (inactive) with NCI/ADR-RES; 52.7 µM (inactive) with HL-60; > 100 µM (inactive) in the assay on NCI-H522. For the same compound, the GI50 in the assay on MOLT-4 is 14 µM (inactive).
For `N#Cc1c(=O)c2cccnc2n2c1[nH]c1ccccc12`, the GI50 with RXF 393 is 74.1 µM (inactive); with RPMI-8226, > 100 µM (inactive); in the assay on SW-620, > 100 µM (inactive); in the assay with SN12C, > 100 µM (inactive); in the assay with LOX IMVI it was > 100 µM (inactive); in the assay on HCC 2998, > 100 µM (inactive). Further, the GI50 in the assay on HCT-15 is 98.2 µM; in the assay on HCT-116 it was 91.4 µM (inactive); with UACC-62, > 100 µM (inactive); with UO-31, 48.6 µM (inactive); with CCRF-CEM it was > 100 µM (inactive); in the assay on CAKI-1, > 100 µM (inactive). Also, the GI50 in the assay on SF-268 was 49.1 µM (inactive); with COLO 205, > 100 µM (inactive); with A549, > 100 µM (inactive); in the assay with NCI/ADR-RES, 64.6 µM (inactive); in the assay on HL-60 it was > 100 µM (inactive); with MOLT-4 it was > 100 µM (inactive).
With `Cc1cnc(/N=c2\sc(C)cn2-c2ncc(C)s2)s1`, the GI50 in the assay on RXF 393, with RPMI-8226, with SW-620, in the assay on SN12C, with LOX IMVI and in the assay with HCC 2998 was > 100 µM (inactive) each time. Also, the GI50 is over 100 µM in the assay on HCT-15; > 100 µM (inactive) in the assay on HCT-116; > 100 µM (inactive) with UACC-62; > 100 µM (inactive) in the assay on UO-31; > 100 µM (inactive) with CCRF-CEM; > 100 µM (inactive) with SK-MEL-5. The GI50 with SF-268, with COLO 205, in the assay with A549, in the assay with NCI/ADR-RES, in the assay on HL-60 and with NCI-H522 was > 100 µM (inactive) throughout. Besides, the GI50 in the assay on MOLT-4 is > 100 µM (inactive).
`CC(=O)C1CC[C@@H]2[C@H](CC[C@]3(C)[C@@H](O)CC[C@@H]23)[C@H]1C(=O)O` (stereo partly drawn): the GI50 in the assay on RXF 393 is > 100 µM (inactive); in the assay with RPMI-8226, > 100 µM (inactive); with SW-620, > 100 µM (inactive); with HCC 2998, > 100 µM (inactive); in the assay on HCT-15, over 100 µM; in the assay on UACC-62 it was > 100 µM (inactive). The GI50 with UO-31, in the assay on CCRF-CEM, in the assay on SK-MEL-5, in the assay with CAKI-1, in the assay with SF-268 and in the assay with COLO 205 was > 100 µM (inactive) each time. For the same compound, the GI50 in the assay on A549, with NCI/ADR-RES, in the assay with HL-60, in the assay on NCI-H522 and in the assay on MOLT-4 was > 100 µM (inactive) throughout.
On to `O=[N+]([O-])c1ccc2[nH]c3c(-c4ccccc4)nccc3c2c1`, for which the GI50 is 25.4 µM (inactive) with RXF 393; 0.796 µM (active) in the assay with RPMI-8226; 36 µM (inactive) in the assay on SW-620; 25.1 µM (inactive) in the assay on SN12C; 16.9 µM (inactive) in the assay with LOX IMVI; 19.5 µM (inactive) in the assay with HCC 2998. In addition, the GI50 in the assay on HCT-15 is 8.59 µM; in the assay with HCT-116 it was 17.1 µM (inactive); in the assay with UACC-62, 14.8 µM (inactive); in the assay on UO-31, 4.41 µM (inactive); in the assay on CCRF-CEM it was 4.09 µM (inactive); with SK-MEL-5 it was 15.4 µM (inactive). Besides, the GI50 in the assay on SF-268 was 25 µM (inactive); in the assay on COLO 205, 34.2 µM (inactive); in the assay with A549, 15.6 µM (inactive); in the assay with NCI/ADR-RES, 16 µM (inactive); in the assay on HL-60 it was 6 µM (inactive); in the assay on NCI-H522 it was 14.3 µM (inactive). In addition, the GI50 with MOLT-4 is 2.31 µM (inactive).
Turning to `CC(=O)OCC1OC(n2c3c(c(-c4ccco4)c(C#N)c2=S)CCC3)C(OC(C)=O)C(OC(C)=O)C1OC(C)=O` (stereo not drawn), the GI50 was 20.2 µM (inactive) in the assay with RXF 393; 28.1 µM (inactive) with RPMI-8226; 55.8 µM (inactive) in the assay with SW-620; > 100 µM (inactive) in the assay on SN12C; 60.1 µM (inactive) with LOX IMVI; > 100 µM (inactive) in the assay on HCC 2998. For the same compound, the GI50 is over 100 µM in the assay on HCT-15; > 100 µM (inactive) in the assay with HCT-116; 42.2 µM (inactive) in the assay with UACC-62; 80.7 µM (inactive) with UO-31; 8.09 µM (inactive) in the assay with CCRF-CEM; 31.6 µM (inactive) in the assay on SK-MEL-5. For the same compound, the GI50 in the assay with CAKI-1 was 55.1 µM (inactive); in the assay with SF-268 it was > 100 µM (inactive); in the assay on COLO 205 it was > 100 µM (inactive); in the assay with A549, > 100 µM (inactive); with NCI/ADR-RES, 37.8 µM (inactive); with HL-60, 82.8 µM (inactive). In addition, the GI50 with MOLT-4 was 4.42 µM (inactive).
Regarding `C[C@]12CC[C@H]3[C@@H](CCC4=CC(=O)CC[C@@]43C)[C@@H]1CC[C@@H]2C(=O)COS(=O)(=O)c1ccc(Br)cc1`, the GI50 was 14.5 µM (inactive) in the assay on RXF 393; 2.35 µM (inactive) in the assay with RPMI-8226; 9.4 µM (inactive) with SW-620; 5.97 µM (inactive) with SN12C; 1.61 µM (inactive) with LOX IMVI; 2.09 µM (inactive) with HCC 2998. Besides, the GI50 with HCT-15 was 14.2 µM; in the assay with UACC-62, 16 µM (inactive); in the assay with UO-31, 1.7 µM (inactive); with CCRF-CEM it was 0.207 µM (active); with SK-MEL-5, 8.77 µM (inactive); with CAKI-1, 7.76 µM (inactive). Further, the GI50 is 8.93 µM (inactive) in the assay with SF-268; 20.5 µM (inactive) with COLO 205; 18.7 µM (inactive) in the assay on A549; 10.6 µM (inactive) with NCI/ADR-RES; 4.69 µM (inactive) in the assay with HL-60; 1.59 µM (inactive) in the assay with NCI-H522. Besides, in the assay on MOLT-4, the GI50 is 1.41 µM (inactive).
Turning to `COc1ccc(/C(C#N)=C/c2ccc(OC)c(OC)c2)cc1`, the GI50 with RXF 393 was > 100 µM (inactive); with RPMI-8226, > 100 µM (inactive); with SW-620, > 100 µM (inactive); with SN12C, > 100 µM (inactive); in the assay with LOX IMVI, > 100 µM (inactive); in the assay on HCC 2998 it was 59 µM (inactive). Moreover, the GI50 in the assay with HCT-15 is 37.2 µM; in the assay on HCT-116, > 100 µM (inactive); in the assay on UACC-62, > 100 µM (inactive); in the assay on UO-31, > 100 µM (inactive); with CCRF-CEM it was > 100 µM (inactive); in the assay with SK-MEL-5, > 100 µM (inactive). The GI50 with CAKI-1, in the assay with SF-268, with COLO 205, in the assay with A549, in the assay on NCI/ADR-RES and with HL-60 was > 100 µM (inactive) in each case. The GI50 in the assay with NCI-H522 and in the assay on MOLT-4 was > 100 µM (inactive) each time.
With `CC(=O)Oc1ccccc1C(=O)Nc1ncc([N+](=O)[O-])s1` [NITAZOXANIDE], the GI50 in the assay with RXF 393 was 4.42 µM (inactive); with RPMI-8226, 10.3 µM (inactive); with SW-620, 33.1 µM (inactive); with SN12C it was 19.8 µM (inactive); in the assay with LOX IMVI, 21.8 µM (inactive); in the assay with HCC 2998 it was 13 µM (inactive). For the same compound, the GI50 with HCT-15 is 19.9 µM; with HCT-116 it was 11.2 µM (inactive); in the assay on UACC-62, 4.33 µM (inactive); with UO-31, 26 µM (inactive); with SK-MEL-5 it was 11.9 µM (inactive); in the assay with CAKI-1, 26.5 µM (inactive). Also, the GI50 was 14.9 µM (inactive) in the assay on SF-268; 12.7 µM (inactive) in the assay with COLO 205; 22 µM (inactive) in the assay on A549; 10.3 µM (inactive) with NCI/ADR-RES; 2.86 µM (inactive) with NCI-H522; > 100 µM (inactive) in the assay on MOLT-4.
